Data reported in ChEMBL document CHEMBL1201862, “PubChem BioAssay data set” (2004).
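Each compound was tested at five concentrations against cells in 96-well plates for 48 hours. At the GI50, growth is halved.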 Calls of active or inactive are those of the source. Cut-off read from the data, not from the text of the source: active = GI50 up to about 1.1 µM and inactive = higher.

Key:
Test in all cases: growth of human tumour cells (NCI), 48 h
[1] = test system: RPMI-8226
[2] = test system: Malme-3M
[3] = test system: HOP-62
[4] = test system: T47D
[5] = test system: UO-31
[6] = test system: HCT-116
[7] = test system: CCRF-CEM
[8] = test system: NCI-H23
[9] = test system: SK-MEL-5
[10] = test system: K562
[11] = test system: SF-539
[12] = test system: LOX IMVI
[13] = test system: CAKI-1
[14] = test system: UACC-257
[15] = test system: UACC-62
[16] = test system: NCI-H522
[17] = test system: SNB-19
[18] = test system: A549
[19] = test system: M14
[20] = test system: U-251
[21] = test system: MDA-N
[22] = test system: 786-0
[23] = test system: SNB-75
[24] = test system: OVCAR-5
[25] = test system: EKVX
[26] = test system: HCC 2998
[27] = test system: SF-295
[28] = test system: COLO 205
[29] = test system: SK-MEL-2
[30] = test system: NCI/ADR-RES
[31] = test system: TK-10
[32] = test system: OVCAR-3
[33] = test system: A498
[34] = test system: RXF 393
[35] = test system: MDA-MB-231
[36] = test system: SW-620
[37] = test system: MCF7
[38] = test system: SN12C
[39] = test system: NCI-H460
[40] = test system: SK-OV-3
[41] = test system: PC-3
[42] = test system: DU-145
[43] = test system: SK-MEL-28
[44] = test system: HCT-15
[45] = test system: HL-60
[46] = test system: ACHN
[47] = test system: OVCAR-8
[48] = test system: SF-268
[49] = test system: HOP-92
[50] = test system: KM12
[51] = test system: IGROV-1
[52] = test system: HT-29
[53] = test system: MOLT-4
[54] = test system: Hs-578T
[55] = test system: MDA-MB-435
[56] = test system: NCI-H226
[57] = test system: OVCAR-4

COc1ccc(Oc2nc3cc(N)cc(N)c3nc2-c2ccccc2)cc1 was tested, and the GI50 [1] was 10.5 µM (inactive), the GI50 [2] was 55.1 µM (inactive) and the GI50 [3] was 19.2 µM (inactive).
CC[C@@]1(O)C(=O)OCc2c1cc1n(c2=O)Cc2c-1nc1ccccc1c2/C=N\c1ccc(N[C@@H]2c3cc4c(cc3[C@@H](c3cc(OC)c(O)c(OC)c3)[C@H]3C(=O)OC[C@@H]32)OCO4)cc1 was tested, and the GI50 [4] was < 0.01 µM (active), the GI50 [5] was 0.0213 µM (active) and the GI50 [6] was 0.0208 µM (active). The GI50 [7] was < 0.01 µM (active), the GI50 [1] was 0.0396 µM (active) and the GI50 [8] was 0.0118 µM (active). For the same molecule, the GI50 [9] was 0.0288 µM (active), the GI50 [10] was 0.0505 µM (active) and the GI50 [11] was < 0.01 µM (active). For the same molecule, the GI50 [12] was < 0.01 µM (active), the GI50 [13] was < 0.01 µM (active) and the GI50 [14] was 0.189 µM (active). For the same molecule, the GI50 [15] was < 0.01 µM (active), the GI50 [16] was 0.0254 µM (active) and the GI50 [17] was 0.0257 µM (active). The GI50 [18] was 0.0292 µM (active), the GI50 [19] was < 0.01 µM (active) and the GI50 [3] was < 0.01 µM (active). For the same molecule, the GI50 [20] was 0.0904 µM (active).
In the case of NS(=O)(=O)c1ccc(/C=C/c2cccc(O)c2)cc1, the GI50 [21] is reported as 36.5 µM (inactive), the GI50 [4] is reported as 25.6 µM (inactive) and the GI50 [22] is reported as > 100 µM (inactive). The GI50 [23] was 46.8 µM (inactive), the GI50 [5] was 20.4 µM (inactive) and the GI50 [24] was > 100 µM (inactive). For the same molecule, the GI50 [25] was 55.1 µM (inactive), the GI50 [6] was 35.9 µM (inactive) and the GI50 [26] was 77.4 µM (inactive). The GI50 [27] was 46.2 µM (inactive), the GI50 [28] was 20 µM (inactive) and the GI50 [9] was 22.2 µM (inactive). The GI50 [29] was 25.4 µM (inactive), the GI50 [30] was 32.9 µM (inactive) and the GI50 [31] was 28.7 µM (inactive). The GI50 [14] was 69.5 µM (inactive), the GI50 [32] was 25.9 µM (inactive) and the GI50 [33] was 59.6 µM (inactive). The GI50 [2] was 75.3 µM (inactive), the GI50 [34] was > 100 µM (inactive) and the GI50 [35] was 38 µM (inactive). The GI50 [36] was 38.6 µM (inactive), the GI50 [37] was 38.9 µM (inactive) and the GI50 [38] was 50.1 µM (inactive). The GI50 [39] was 27.2 µM (inactive), the GI50 [17] was 76.4 µM (inactive) and the GI50 [40] was 38.4 µM (inactive). The GI50 [41] was 36.7 µM (inactive), the GI50 [19] was 55.6 µM (inactive) and the GI50 [3] was > 100 µM (inactive). The GI50 [42] was 47.8 µM (inactive) and the GI50 [43] was 74.5 µM (inactive).
In the case of CC(=O)N1CN2C(=O)CCC2c2cc(C)ccc21 (stereo unspecified), the GI50 [21] is reported as > 100 µM (inactive), the GI50 [4] is reported as > 100 µM (inactive) and the GI50 [22] is reported as > 100 µM (inactive). The GI50 [44] was over 100 µM, the GI50 [23] was > 100 µM (inactive) and the GI50 [5] was > 100 µM (inactive). For the same molecule, the GI50 [24] was > 100 µM (inactive), the GI50 [25] was > 100 µM (inactive) and the GI50 [6] was > 100 µM (inactive). The GI50 [45] was > 100 µM (inactive), the GI50 [7] was > 100 µM (inactive) and the GI50 [46] was > 100 µM (inactive). For the same molecule, the GI50 [47] was > 100 µM (inactive), the GI50 [26] was > 100 µM (inactive) and the GI50 [27] was > 100 µM (inactive). The GI50 [28] was > 100 µM (inactive), the GI50 [1] was > 100 µM (inactive) and the GI50 [48] was > 100 µM (inactive). For the same molecule, the GI50 [8] was > 100 µM (inactive), the GI50 [9] was > 100 µM (inactive) and the GI50 [10] was > 100 µM (inactive). The GI50 [11] was > 100 µM (inactive), the GI50 [29] was > 100 µM (inactive) and the GI50 [12] was > 100 µM (inactive). The GI50 [49] was > 100 µM (inactive), the GI50 [30] was > 100 µM (inactive) and the GI50 [50] was > 100 µM (inactive). For the same molecule, the GI50 [51] was > 100 µM (inactive), the GI50 [31] was > 100 µM (inactive) and the GI50 [13] was > 100 µM (inactive). The GI50 [52] was > 100 µM (inactive), the GI50 [14] was > 100 µM (inactive) and the GI50 [15] was > 100 µM (inactive). For the same molecule, the GI50 [16] was > 100 µM (inactive), the GI50 [32] was > 100 µM (inactive) and the GI50 [33] was > 100 µM (inactive). For the same molecule, the GI50 [2] was > 100 µM (inactive), the GI50 [34] was > 100 µM (inactive) and the GI50 [53] was > 100 µM (inactive). The GI50 [35] was > 100 µM (inactive), the GI50 [36] was > 100 µM (inactive) and the GI50 [54] was > 100 µM (inactive). For the same molecule, the GI50 [37] was > 100 µM (inactive), the GI50 [55] was > 100 µM (inactive) and the GI50 [38] was > 100 µM (inactive). For the same molecule, the GI50 [39] was > 100 µM (inactive), the GI50 [17] was > 100 µM (inactive) and the GI50 [40] was > 100 µM (inactive). For the same molecule, the GI50 [18] was > 100 µM (inactive), the GI50 [56] was > 100 µM (inactive) and the GI50 [57] was > 100 µM (inactive). For the same molecule, the GI50 [41] was > 100 µM (inactive), the GI50 [19] was > 100 µM (inactive) and the GI50 [3] was > 100 µM (inactive). The GI50 [42] was > 100 µM (inactive), the GI50 [20] was > 100 µM (inactive) and the GI50 [43] was > 100 µM (inactive).
